Laboratory results as given in US12409154B2, “Pharmaceutical compositions for use in treating pain” (TAIWAN LIPOSOME COMPANY, LTD., priority 2019, dated 2025).

Tests used:
[1] = pKa of ropivacaine and calculated uncharged fraction; assay type: physicochemical; settings: pH 6.0; calculated from pKa
Protocol: In some embodiments, the lipid-based complex of the anesthetic composition is formed by hydrating a lyophilized lipid cake with a pharmaceutically acceptable buffer solution at a pH higher than 5.5. […] In some embodiments, the lipid cake according to the present disclosure is prepared by dissolving apolar ropivacaine, phospholipid, and cholesterol in a solvent system, e.g., tert-butanol alone or a tert-butanol/water cosolvent, followed by removing the solvent system using a lyophilization technique.

[2] = test system: adult subjects following inguinal hernia repair surgery; test: Phase I/II study, single infiltrative local administration after inguinal hernia repair surgery: efficacy (NPRS pain, rescue analgesic use); assay type: in vivo, human; settings: TLC590 475 mg, ropivacaine group 150 mg
From the text: A Phase I/II, randomized, double-blind, comparator-controlled, dose-escalation study to assess the safety, PK, and efficacy of single postsurgical application of the anesthetic composition in accordance with the present disclosure (denoted as TLC590) compared with Naropin® via a single infiltrative local administration in adult subjects following inguinal hernia repair surgery. The study enrolled approximately 64 evaluable subjects who met all entry criteria across 4 cohorts. Dose escalation of a single postsurgical administration of TLC590 was performed using sequential dose levels, as compared with Naropin®. Dose-escalation were determined by review of […] (TEAEs) and all serious AEs (SAEs) by a safety monitoring committee (SMC). […] Pain intensity at rest and with movement assessed using an 11-point NPRS ranging from a score of 0 (no pain) to 10 (worst possible pain). • 2. […]

- theoretically uncharged ropivacaine, share of available ropivacaine [1]: 0.8%
SMILES: CCCN1CCCC[C@H]1C(=O)Nc1c(C)cccc1C [ropivacaine]
- median time to first rescue analgesic [2]: 13 h
- median time to first postsurgical opioid use ([2]; among those who used rescue opioid): 3.3 h
